Assay results published in patent publication US11597954B2, “Bioproduction of phenethyl alcohol, aldehyde, acid, amine, and related compounds” (National University of Singapore, priority 2017, dated 2023).

What was measured:
[1] = test system: E. coli (R-PAL-PAD_E-SMO-SOI-PAR); experiment: Apparent kinetics of the whole-cells (Lineweaver-Burk plot) with and without 2-PE; format: cell-based; details: competitive inhibition; 3 mM 2-PE, 15 minutes, 5 g cdw/L cells, 10 mM L-phenylalanine, 30° C.
Procedure: (§1) The reaction for FIG. 17b was done at 30° C. and 250 rpm in 2 ml KP buffer (100 mM, pH 8.0) containing 0.5% (w/v) glucose, 5 g cdw/L of cell suspension, 10 mM L-phenylalanine, and (•) 0 or (▴) 3 mM of 2-PE in the aqueous phase, with n-hexadecane in the organic phase.
To further investigate the product inhibition, the apparent kinetics of the whole-cells was measured and determined using Lineweaver-Burk plot. 2-PE concentration of 3 mM was used for 15 minutes in order to determine the kinetic, thus the product toxicity towards the cells could be neglected.

[2] = Partition coefficient in aqueous-organic biphasic system; format: physicochemical; details: for Partition coefficient K value: phase ratio 1:1
Procedure: FIGS. 18a and 18b show (FIG. 18a) partition coefficient of 2-PE in aqueous-organic biphasic system. Partition coefficient measured at a phase ratio of 1:1. KP buffer (100 mM, pH 8.0) was utilized as the aqueous buffer. All data were obtained from the mean values of triplicate with standard deviations through HPLC analysis. K value for L-phenylalanine was observed as ˜0 in all the respective organic solvents mentioned and (FIG. 18b) screening of 7 different organic solvent for the one-pot production of 2-PE from L-phenylalanine with the KP buffer (100 mM, pH 8.0) containing 0.5% glucose and 50 mM L-phenylalanine.
In-situ product removal technique via extraction have been conducted to remove the obtained 2-PE from the aqueous phase and make its concentration below the inhibitory level. We investigated different type of organic solvents and ionic liquids to perform the extractive biotransformation for 2-PE production via styrene-derived pathway from L-phenylalanine, starting from the analysis of their partition coefficients in the biphasic system. Product and substrate coefficient partitions in organic and aqueous phase were determined by adding different concentration of 2-PE and L-phenylalanine, respectively, into KP buffer (100 mM, pH 8.0) together with the respective organic solvents. Reaction mixtures were incubated for 1 h (280 rpm, 30° C.).

[3] = test system: cells; details: literature; cited from earlier work
[4] = test system: E. coli (pRSF-PAL-PAD_pET-SMO-SOI-PAR); format: cell-based
Procedure: as §1
The product inhibition was investigated by adding different concentration of 2-PE to the cell suspension (10 g cdw/L) of E. coli (pRSF-PAL-PAD_pET-SMO-SOI-PAR) in KP buffer (100 mM, pH 8.0) containing 0.5% glucose in aqueous phase with n-hexadecane as the organic phase, followed by the incubation at 30° C. and 250 rpm for 3 h.
Biotransformation was done in aqueous phase with KP buffer (100 mM, pH 8.0) containing cell suspension (10 g cdw/l), 0.5% glucose, and 50 mM L-phenylalanine as initial substrate while n-hexadecane as the organic phase (250 rpm, 2 h, 30° C.)

Partition coefficient K value ([2]; all the respective organic solvents vs KP buffer (100 mM, pH 8.0))	Structure (SMILES)	Ki [1]	Partition coefficient K value ([2]; most of the organic solvents used vs KP buffer (100 mM, pH 8.0))	Partition coefficient ([2]; n-hexadecane vs KP buffer (100 mM, pH 8.0), compared with the other organic solvents)	Concentration of 2-PE that will inhibit the cells [3]	2-PE concentration in the aqueous phase that started to inhibit the biotransformation ([4]; 3 h pretreatment, then 50 mM L-phenylalanine, 2 h, 30° C.)	Toxicity of 2-PE to the cells ([4]; cells 10 g cdw/L incubated with 2-PE 3 h, 30° C., KP buffer pH 8.0 / n-hexadecane)	Biotransformation activity of cells pretreated with 2-PE ([4]; pretreated with 90 mM 2-PE)
	OCCc1ccccc1 [2-PE, 2-Phenylethanol]	4.8 mM	> 1	much lower	2-3 gr/L	above 30 mM	toxic	almost no activity
~0	N[C@@H](Cc1ccccc1)C(=O)O [L-phenylalanine]							
